{"source": "patent US20110207751A1", "about": "“HETEROCYCLIC COMPOUNDS AND USES AS ANTICANCER AGENTS” (priority 2010, published 2011)", "key": {"[1]": {"tested_on": "SKOV3 cells (human ovarian cancer cell line)", "test": "Inhibition of cell proliferation, xCelligence cell index", "assay_type": "cell-based", "conditions": "SK-OV-3, 72 hr post compound treatment, read-out: calculated IC50", "excerpt": "(§1) The biological activity of compounds disclosed herein was monitored and profiled using the Real-Time Cell Electronic Sensing (RT-CES®) system from ACEA Biosciences, Inc. The RT-CES system utilizes cell-substrate impedance technology to monitor cellular behavior inside tissue culture wells in a microtiter plate format. The technology features in the integration of molecular and cell biology with microelectronics and is based on the electronic detection of biological assay process. […]\n(§2) For measurement of cell-substrate or cell-electrode impedance using RT-CES technology, microelectrodes having appropriate geometries are fabricated onto the bottom surfaces of microtiter plate or similar device, facing into the wells. […] When there are changes to the biological status of the cells analogue electronic readout signals are measured automatically and in real time, and are converted to digital signals for processing and for analysis. In a RT-CES system, a cell index (arbitrary representation of change in impedance) is automatically derived and provided based on measured electrode impedance values. […]\n(§3) To quantify cell status based on the measured cell-electrode impedance, a parameter termed Cell Index is derived. Cell Index is a quantitative measure of the status of the cells in an electrode-containing well. […]"}, "[2]": {"tested_on": "H2347 cells (human non-small cell lung cancer cell line)", "test": "Inhibition of cell proliferation, xCelligence cell index", "assay_type": "cell-based", "conditions": "NCI-H2347, 72 hr post compound treatment, read-out: calculated IC50", "excerpt": "as §1, §2, §3"}, "[3]": {"tested_on": "microtubule network in A549 cells", "test": "Microtubule organization in A549 cells", "assay_type": "cell-based, human", "conditions": "20 hr treatment"}, "[4]": {"tested_on": "HT1080 cells (human connective tissue cancer cell line)", "test": "Inhibition of cell proliferation, xCelligence cell index", "assay_type": "cell-based", "conditions": "HT-1080, 72 hr post compound treatment, read-out: calculated IC50", "excerpt": "as §1, §2, §3"}}, "note": "Counter-ions that a name gives are not always drawn.", "data": [{"compound": "CCc1ccc(Nc2nc(-c3c(C)nc4sccn34)cs2)cc1", "note": "[COMPOUND O, 2-(4-ethylphenyl)amino-4-(6-methylimidazo[2,1-b]thiazol-5-yl)-thiazole monohydrobromide]", "values": [{"measurement": "IC50", "setting": "[1]", "value": 5.47, "unit": "nM"}, {"measurement": "IC50", "setting": "[2]", "value": 1.76, "unit": "nM"}, {"measurement": "effect on microtubule organization", "setting": "[3]", "value": "findings similar to those of vincristine-induced microtubule changes"}, {"measurement": "IC50", "setting": "[4]", "value": 7.63, "unit": "nM"}]}, {"compound": "CC(=O)O[C@H]1C(=O)[C@@]2(C)[C@H]([C@H](OC(=O)c3ccccc3)[C@]3(O)C[C@H](OC(=O)[C@H](O)[C@@H](NC(=O)c4ccccc4)c4ccccc4)C(C)=C1C3(C)C)[C@]1(OC(C)=O)CO[C@@H]1C[C@@H]2O", "note": "[paclitaxel]", "values": [{"measurement": "IC50", "setting": "[1]", "value": 5.34, "unit": "nM"}, {"measurement": "effect on microtubule organization", "setting": "[3]", "value": "microtubule polymerization with an increasing in the density of cellular microtubules"}]}, {"compound": "CC[C@]1(O)C[C@H]2CN(CCc3c([nH]c4ccccc34)[C@@](C(=O)OC)(c3cc4c(cc3OC)N(C=O)[C@H]3[C@@](O)(C(=O)OC)[C@H](OC(C)=O)[C@]5(CC)C=CCN6CC[C@]43[C@@H]65)C2)C1", "note": "[vincristine]", "values": [{"measurement": "IC50", "setting": "[2]", "value": 5.05, "unit": "nM"}, {"measurement": "IC50", "setting": "[4]", "value": 2.01, "unit": "nM"}]}]}
